Assay results from patent US12194080B2, “Methods for identification, assessment, prevention, and treatment of metabolic disorders using PM20D1 and N-lipidated amino acids” (Dana-Farber Cancer Institute, Inc., priority 2015, dated 2025).

Legend:
C2C12 cells = assay: Mitochondrial membrane potential by TMRM fluorescence; format: cell-based, mouse; conditions: 20 min
Description: Mitochondrial membrane potential was measured using tetramethylrhodamine methyl ester (TMRM, Life Technologies) fluorescence. C2C12 cells were plated in 6-well plates and grown to 80-90% confluence. Cells were then washed once with PBS and switched into Seahorse respiration buffer with the indicated compounds at the indicated concentrations: TMRM (100 nM), oligomycin (1 μM), FCCP (0.4 μM), and C18:1-Phe (10 or 50 μM). After 20 min. incubation at 37° C., the media was aspirated, cells were washed once with PBS, and trypsinized. Trypsinized cells were directly resuspended in PBS (total volume 300 μl), stored on ice, and analyzed on a FACSCanto™ II (BD Biosciences) with 20,000 events per sample.

[1] = tested on: primary inguinal fat cells, primary BAT cells, C2C12 cells, and U2OS cells; assay: Uncoupled respiration cellular assays (variety of cell types); format: cell-based; conditions: N-acyl amino acids at 10-100 uM
Description: (§1) Cellular oxygen consumption rates were determined using an XF24 Extracellular Flux Analyzer (Seahorse Biosciences). Oligomycin was purchased from EMD Millipore, and FCCP and rotenone were purchased from Sigma. C2C12 or U2OS cells were seeded at 30,000 or 50,000 cells/well, respectively in an XF24 cell culture microplate (V7-PS, Seahorse Bioscience) and analyzed the following day. Primary iWAT or BAT adipocytes were seeded at 15,000 cells/well, differentiation was induced the following day as described, and the cells were analyzed on day 5. On the day of analysis, the cells were washed once with Seahorse respiration buffer (8.3 g/1 DMEM, 1.8 g/l NaCl, 1 mM pyruvate, 20 mM glucose, pen/strep), placed in 0.5 ml Seahorse respiration buffer, and incubated in a CO2-free incubator for 1 hr. Port injection solutions were prepared as follows (final concentrations in assay in parentheses): 10 μM oligomycin (1 μM final), […] amino acid (50 μM final), 2 μM FCCP (0.2 μM final), and 30 μM rotenone (3 μM final). The Seahorse program was run as follows: basal measurement, 3 cycles; inject port A (oligomycin), 3 cycles; inject port B (compounds), 8 cycles; inject port C (FCCP), 3 cycles; inject port D (rotenone), 3 cycles. Each cycle consisted of mix 4 min, wait 0 min, and measure 2 min. For data expressed as a percentage of oligomycin-treated basal, the respiration at cycle 6 was normalized to 100%, and the maximum respiration at any time point between cycles 7 and 15 inclusive was used.

U2OS cells = assay: Cellular oxygen consumption rate (uncoupled respiration), U2OS cells; format: cell-based, human; conditions: 50 μM, after oligomycin 1 μM
Description: (§2) C2C12, U2O5, and 293A cells were cultured in DMEM with 10% FBS and pen/strep. Primary inguinal (iWAT) and brown (BAT) adipocytes were obtained as follows. The stromal-vascular fraction of inguinal (iWAT) pad from 4-12 week old male mice was dissected, minced, and digested for 45 min. at 37° C. in PBS containing 10 mM CaCl2, 2.4 U/ml dispase II (Roche), and 1.5 U/ml collagenase D (Roche). The stromal-vascular fraction of brown fat (BAT) pads from newborn (P1-P14) pups was dissected, minced, and digested for 45 min at 37° C. in PBS containing 1.3 mM CaCl2, 120 mM NaCl, 5 mM KCl, 5 mM glucose, 100 mM HEPES, 4% BSA, and 1.5 mg/ml collagenase B (Roche). Digested tissue was diluted with adipocyte culture media (DMEM/F-12, GlutaMAX™ supplement, Life Technologies, with 10% FBS and pen/strep) and centrifuged (600×g for 10 min.). The pellet was resuspended in 10 ml adipocyte culture media, strained through a 40 μm filter, and plated. Differentiation was induced by application of an adipogenic cocktail containing 5 μg/ml insulin (Sigma), 5 μM dexamethasone (Sigma), 250 μM isobutylmethylxanthine (Sigma), and 1 μM rosiglitazone (Cayman) for 2 days. Two days after induction, cells were maintained in adipocyte culture media containing 5 μg/ml insulin and 1 μM rosiglitazone.
as §1

[2] = tested on: differentiated primary iWAT cells; assay: Cellular oxygen consumption rate (Seahorse XF24), differentiated primary iWAT adipocytes; format: cell-based, mouse; conditions: 50 μM, in presence of oligomycin; control fatty acid
Description: as §2, §1

mouse PM20D1 = target: T1, mouse PM20D1 (Mus musculus, UniProt Q8C165); assay: In vitro PM20D1-catalyzed synthesis of N-acyl amino acids; format: biochemical; conditions: head group 100 μM; oleate or arachidonate 1.5 mM, C18:1-CoA 0.7 mM
T1 construct: Full-length mouse Pm20d1 cDNA (GE Dharmacon) was subcloned with an in-frame C-terminal 6× His and FLAG® tag; made in house; host or cells: 293A (HEK293A) cells stably infected with retrovirus
T1 sequence (Q8C165 25-503): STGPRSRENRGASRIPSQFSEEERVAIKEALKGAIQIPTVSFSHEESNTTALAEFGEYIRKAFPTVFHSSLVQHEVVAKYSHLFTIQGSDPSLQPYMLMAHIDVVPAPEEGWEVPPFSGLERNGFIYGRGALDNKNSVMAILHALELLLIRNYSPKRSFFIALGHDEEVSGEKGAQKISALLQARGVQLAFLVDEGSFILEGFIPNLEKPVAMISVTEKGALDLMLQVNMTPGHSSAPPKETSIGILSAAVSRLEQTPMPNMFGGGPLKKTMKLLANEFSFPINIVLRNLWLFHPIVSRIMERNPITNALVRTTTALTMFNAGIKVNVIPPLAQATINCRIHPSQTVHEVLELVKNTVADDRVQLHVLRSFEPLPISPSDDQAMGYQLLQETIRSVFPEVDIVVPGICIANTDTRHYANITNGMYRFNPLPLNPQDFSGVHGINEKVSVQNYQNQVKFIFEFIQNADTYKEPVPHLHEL
Description: The concentrated media was centrifuged to remove debris (600×g, 10 min, 4° C.) and the supernatant containing PM20D1-flag was decanted into a new tube. PM20D1-Flag was immunoaffinity purified overnight at 4° C. from the concentrated media using magnetic Flag-M2 beads (Sigma Aldrich). The beads were collected, washed three times in PBS, eluted with 3× Flag peptide ([…] in PBS, Sigma Aldrich), aliquoted, and stored at −80° C. For the purification of human PM20D1-flag, hPM20D1-flag plasmid (Origene) was transiently transfected into 293A cells. After two days, the media was changed, harvested 24 h later, concentrated, and purified exactly as described above.
In vitro PM20D1-catalyzed synthesis of N-acyl amino acids was measured by incubating purified PM20D1 protein with oleate (1.5 mM) and phenylalanine (0.1 mM) in PBS (to 100 μl final volume) at 37° C. for 1.5 hrs. In vitro PM20D1-catalyzed N-acyl amino acid hydrolysis was measured by incubating purified PM20D1 protein with the indicated N-acyl amino acid (0.1 mM) in PBS (to 100 μl final volume) at 37° C. for 1.5 hrs. Reactions were terminated by placing the vials at −80° C. and the products generated in vitro were analyzed by mass spectroscopy (MS).
Briefly, frozen serum (30 μl) for polar metabolomic analyses were extracted in 160 μl of 1:1 acetonitrile/methanol with inclusion of internal standard D3, ^15N-serine (1 nmol). Activity assays (100 μl) were extracted in 400 μl 1:1 acetonitrile/methanol. Following 30 s of thorough vortexing and 1 min of bath sonication, the polar metabolite fraction (supernatant) was isolated by centrifugation at 13,000×g for 10 min. Ten μl of this supernatant was analyzed by SRM-based targeted LC-MS/MS, or untargeted LC-MS.
For separation of polar metabolites, normal-phase chromatography was performed with a […] column (50 mm×4.60 mm, Phenomenex). Mobile phases were as follows: Buffer A, acetonitrile; Buffer B, 95:5 water/acetonitrile with 0.1% formic acid or 0.2% ammonium hydroxide with 50 mM ammonium acetate for positive and negative ionization mode, respectively. The flow rate for each run started at 0.2 ml/min for 2 min, followed by a gradient starting at 0% B and increasing linearly to 100% B over the course of 15 min with a flow rate of 0.7 ml/min, followed by an isocratic gradient of 100% B for 10 min at 0.7 ml/min before equilibrating for 5 min at 0% B with a flow rate of 0.7 ml/min. MS analysis was performed with an electrospray ionization (ESI) source on an Agilent 6430 QQQ LC—MS/MS. The capillary voltage was set to 3.5 kV, and the fragmentor voltage was set to 100 V. The drying gas temperature was 325° C., the drying gas flow rate was 10 l/min, and the nebulizer pressure was 45 psi. For polar targeted and untargeted metabolomic analysis, representative metabolites were quantified by SRM of the transition from precursor to product ions (corresponding to amino acid fragment) at associated collision energies. Several representative fragmentation ions are as follows: C18:1-Ala, 352>88; C18:1-Gly, 338>74; C18:1-Phe, 428>164; C18:1-Leu/Ile, 394>130; C20:4-Phe, 450>164; C20:4-Leu/Ile, 416>130. Untargeted LC-MS was performed by scanning a mass range of m/z 50-1200, and data were exported as mzdata files and uploaded to XCMSOnline (xcmsserver.nutr.berkeley.edu) to identify metabolites that were differentially changed. For targeted metabolomics analysis, metabolites were quantified by integrating the area under the peak and were normalized to internal standard values corresponding to 1 nmol D3, ^15N-serine.

[3] = tested on: Diet induced obese (DIO) mice; assay: Chronic daily i.p. administration of N-acyl amino acids to DIO mice (body weight, food intake, body composition, GTT); format: in vivo, mouse; conditions: 25 mg/kg, i.p., daily, after 8 days treatment, mean±SEM
Description: Animal experiments were performed according to procedures approved by the Beth Israel Deaconess Medical Center IACUC. Mice were maintained in 12 h light-dark cycles at 22° C. and fed a standard irradiated rodent chow diet. All experiments on wild-type mice were performed with male C57BL/6 mice purchased from Jackson Laboratories, except for the AAV experiments, which were performed with male C57BL/6 mice from Charles River. UCP1-KO (stock #017476) and 16-20 week DIO mice (stock #380050) were obtained from Jackson Laboratories. For AAV injection experiments, mice were gently warmed using a 250 W clear infrared heat lamp, immobilized, and injected via tail vein with 10^10 virus/mouse (diluted in saline) in a total volume of 100 μl/mouse. Where indicated, mice were placed on high-fat diet (60% fat, Research Diets). For cold exposure experiments, mice were group housed and placed at 4° C. for the indicated times. For the preparation of C18:1-Phe for in vivo injections, compounds were dissolved in 18:1:1 v/v/v saline:Kolliphor® EL (Sigma Aldrich):DMSO and sonicated until homogeneous. Mice were administered compounds at 5 μl/g body weight at the indicated doses. For all injection experiments, mice were mock injected with saline daily for 3 days prior to the start of the experiments. For glucose tolerance tests (GTTs), mice received their final dose of compound the day prior to the assay and were then fasted overnight. Glucose was administered at 1.5 g/kg.
Energy expenditure, O2 consumption, CO2 production, respiratory exchange ratio, total locomotor activity, and food intake measurements were made with a 16-cage Columbus Instruments Oxymax Comprehensive Lab Animal Monitoring System (CLAMS) at ambient room temperature (21-23° C.). Mice were acclimated for one day in metabolic cages prior to data collection. Whole-body composition was assessed with an EchoMRI™ 3-in-1 on conscious mice.

Row | Compound | uncoupled respiration in cells [1] | uncoupling activity (uncoupled respiration) (U2OS cells) | other results
1 | N#CC(C#N)=NNc1ccc(OC(F)(F)F)cc1 [FCCP] | – | – | decrease of TMRM fluorescence (C2C12 cells; co-treatment with oligomycin 1 μM, C18:1-Phe 50 μM, FCCP 0.4 μM): ~70%
2 | CCCCCCCCCCCCCCCCCCCC(=O)N[C@@H](Cc1ccccc1)C(=O)O [N-arachidoyl phenylalanine, Icosanoyl-L-phenylalanine] | inactive | completely lacked uncoupling activity | –
3 | CCCCCCCCCCCC(=O)N[C@@H](Cc1ccccc1)C(=O)O [N-lauroyl phenylalanine, Dodecanoyl-L-phenylalanine] | inactive | completely lacked uncoupling activity | –
4 | CCCCCCCCCCCCCCCC(=O)N[C@@H](Cc1ccccc1)C(=O)O [N-palmitoyl phenylalanine, Palmitoyl-L-phenylalanine] | increased uncoupled respiration | possessed uncoupling activity | –
5 | CCCCCCCCCCCCCCCCCC(=O)N[C@@H](Cc1ccccc1)C(=O)O [N-stearoyl phenylalanine, Stearoyl-L-phenylalanine] | increased uncoupled respiration | possessed uncoupling activity | –
6 | CCCCC/C=C\C/C=C\C/C=C\C/C=C\CCCC(=O)O [arachidonate, arachidonic acid, reference compound] | – | – | oxygen consumption rate [2]: increased the oxygen consumption rate very modestly; substrate of the PM20D1 synthase reaction (mouse PM20D1): capable of using arachidonate as a fatty acid donor
7 | CCCCCCCC/C=C\CCCCCCCC(=O)[O-].[Na+] [oleate, sodium oleate, reference compound] | inactive | – | body weight lost [3]: 0.3 ± 0.2 g; substrate of the PM20D1 synthase reaction (mouse PM20D1): strong preference for free oleate over oleoyl-coenzyme A
8 | CC[C@H]1/C=C/C=C/C[C@@H](C)[C@H](O)[C@@](C)(O)C(=O)[C@@H](C)[C@H](O)[C@@H](C)C(=O)[C@@H](C)[C@H](O)[C@@H](C)/C=C/C(=O)O[C@@H]2[C@H](C)[C@H](CC1)O[C@]1(CC[C@H](C)[C@H](C[C@@H](C)O)O1)[C@H]2C [oligomycin] | – | – | mitochondrial membrane potential (C2C12 cells; TMRM fluorescence): increased the membrane potential
